*1 amine or outer side, *2 acyl side, *3 side chain or, on linkers, in order; H or OH if unused. Where a SMILES comes first, the peptide text is derived from it. Bridges are numbered along the chain shown (N, C = ends). Roman numbers before positions name the chains, in order. [ ]: non-standard residue; d: D form. Actinocin(1to9) = Cc1c2oc3c(C)ccc(C(=O)[*:2])c3nc-2c(C(=O)[*:1])c(N)c1=O; NMeV = CN[C@H](C(=O)O)C(C)C; Sar = CNCC(=O)O
What was measured:
[1] = molecular target: T1, D(4) dopamine receptor (Homo sapiens, UniProt P21917); test: DRUGMATRIX: Dopamine D4.2 radioligand binding (ligand: [3H] Spiperone); type: cell membranes, CHO-K1, Membrane; conditions: cho-k1; Not Active = under 50% inhibition at 10 µM
T1 sequence (P21917 whole entry): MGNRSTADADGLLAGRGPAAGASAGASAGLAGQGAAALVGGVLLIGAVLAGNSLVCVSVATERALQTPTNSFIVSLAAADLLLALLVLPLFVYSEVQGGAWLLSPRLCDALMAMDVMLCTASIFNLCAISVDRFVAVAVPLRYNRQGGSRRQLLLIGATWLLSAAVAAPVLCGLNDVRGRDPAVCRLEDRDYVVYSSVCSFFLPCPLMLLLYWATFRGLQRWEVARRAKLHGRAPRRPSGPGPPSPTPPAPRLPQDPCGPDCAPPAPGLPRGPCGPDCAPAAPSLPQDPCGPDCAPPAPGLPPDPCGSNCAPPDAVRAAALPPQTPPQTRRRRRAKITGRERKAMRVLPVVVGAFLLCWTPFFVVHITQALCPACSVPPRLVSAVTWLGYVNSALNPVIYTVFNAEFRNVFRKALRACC

[2] = molecular target: Cytochrome P450 2C19 (Homo sapiens, UniProt P33261); conditions: bti-tn-5b1-4; note: in other assays of this panel Not Active means under 50% inhibition at 10 µM
[3] = molecular target: Estrogen receptor beta (Homo sapiens, UniProt Q92731); conditions: sf9; note: in other assays of this panel Not Active means under 50% inhibition at 10 µM
[4] = molecular target: T2, Angiotensin-converting enzyme (Oryctolagus cuniculus, UniProt P12822); type: tissue-based, Lung;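 note: enzymatic inhibition of angiotensin-converting enzyme measured with FAPGG as the substrate; in other assays of this panel Not Active means under 50% inhibition at 10 µM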
T2 sequence (P12822 whole entry): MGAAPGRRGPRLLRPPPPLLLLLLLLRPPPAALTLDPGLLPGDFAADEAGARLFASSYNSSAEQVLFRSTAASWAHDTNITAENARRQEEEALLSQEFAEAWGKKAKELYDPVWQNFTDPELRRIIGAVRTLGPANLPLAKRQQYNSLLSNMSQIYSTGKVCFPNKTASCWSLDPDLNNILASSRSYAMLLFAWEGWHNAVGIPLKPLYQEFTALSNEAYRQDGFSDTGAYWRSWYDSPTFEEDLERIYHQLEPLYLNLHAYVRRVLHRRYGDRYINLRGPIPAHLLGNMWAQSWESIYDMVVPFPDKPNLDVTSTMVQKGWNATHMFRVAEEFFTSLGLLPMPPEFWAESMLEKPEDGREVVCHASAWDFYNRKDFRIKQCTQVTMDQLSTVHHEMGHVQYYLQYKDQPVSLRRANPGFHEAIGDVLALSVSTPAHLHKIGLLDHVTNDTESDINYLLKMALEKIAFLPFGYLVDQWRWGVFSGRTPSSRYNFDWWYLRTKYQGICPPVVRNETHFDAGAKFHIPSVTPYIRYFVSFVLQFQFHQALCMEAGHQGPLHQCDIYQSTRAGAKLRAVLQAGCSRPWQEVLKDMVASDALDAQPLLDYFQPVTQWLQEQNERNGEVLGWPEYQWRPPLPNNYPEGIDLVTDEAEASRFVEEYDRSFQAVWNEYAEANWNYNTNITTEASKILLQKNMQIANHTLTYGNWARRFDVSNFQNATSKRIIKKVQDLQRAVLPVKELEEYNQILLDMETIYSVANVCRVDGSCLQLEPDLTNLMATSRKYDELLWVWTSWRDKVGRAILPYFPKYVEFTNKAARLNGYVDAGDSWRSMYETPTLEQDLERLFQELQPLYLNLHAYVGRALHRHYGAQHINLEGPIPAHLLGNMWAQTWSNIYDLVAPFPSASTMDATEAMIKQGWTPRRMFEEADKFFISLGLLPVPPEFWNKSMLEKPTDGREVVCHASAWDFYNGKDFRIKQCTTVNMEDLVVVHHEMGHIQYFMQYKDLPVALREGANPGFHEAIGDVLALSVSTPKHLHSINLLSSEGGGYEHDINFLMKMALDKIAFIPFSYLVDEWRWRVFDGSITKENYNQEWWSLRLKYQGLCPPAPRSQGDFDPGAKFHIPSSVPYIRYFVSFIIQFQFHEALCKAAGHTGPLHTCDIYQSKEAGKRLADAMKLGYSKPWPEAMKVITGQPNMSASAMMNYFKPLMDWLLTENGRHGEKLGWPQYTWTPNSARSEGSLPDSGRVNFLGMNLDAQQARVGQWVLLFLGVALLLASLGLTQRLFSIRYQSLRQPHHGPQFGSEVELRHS

[5] = DRUGMATRIX: beta-Lactamase enzyme inhibition (substrate: Nitrocefin); design: species or system Bacillus cereus; conditions: Not Active = under 50% inhibition at 10 µM
[6] = molecular target: T3, C-X-C chemokine receptor type 2 (Homo sapiens, UniProt P25025); type: cell membranes, Membrane; conditions: cho-k1; note: in other assays of this panel Not Active means under 50% inhibition at 10 µM
T3 sequence (P25025 whole entry): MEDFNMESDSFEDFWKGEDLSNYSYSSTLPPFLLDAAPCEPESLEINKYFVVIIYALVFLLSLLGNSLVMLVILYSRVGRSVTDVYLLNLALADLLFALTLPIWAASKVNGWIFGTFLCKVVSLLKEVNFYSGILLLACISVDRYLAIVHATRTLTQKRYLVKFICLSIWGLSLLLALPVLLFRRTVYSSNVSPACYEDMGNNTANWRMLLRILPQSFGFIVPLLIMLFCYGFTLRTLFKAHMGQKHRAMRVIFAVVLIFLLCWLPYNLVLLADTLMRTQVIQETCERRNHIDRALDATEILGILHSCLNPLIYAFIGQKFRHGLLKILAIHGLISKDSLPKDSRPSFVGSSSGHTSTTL

[7] = molecular target: Protein phosphatase 3 catalytic subunit alpha (Homo sapiens, UniProt Q08209); design: species or system Escherichia coli
[8] = DRUGMATRIX: GABAA, Muscimol, Central radioligand binding (ligand: [3H] Muscimol); type: cell membranes, Rattus norvegicus, Wistar, Brain, Membrane; conditions: Not Active = under 50% inhibition at 10 µM
[9] = DRUGMATRIX: Sodium/nucleoside co-transporter radioligand binding (ligand: nitrobenzylthioinosine); type: cell membranes, Cavia porcellus, Dunkin-Hartley, Cerebral cortex, Membrane; conditions: Not Active = under 50% inhibition at 10 µM

Estrogen receptor beta, sequence (Q92731 whole entry): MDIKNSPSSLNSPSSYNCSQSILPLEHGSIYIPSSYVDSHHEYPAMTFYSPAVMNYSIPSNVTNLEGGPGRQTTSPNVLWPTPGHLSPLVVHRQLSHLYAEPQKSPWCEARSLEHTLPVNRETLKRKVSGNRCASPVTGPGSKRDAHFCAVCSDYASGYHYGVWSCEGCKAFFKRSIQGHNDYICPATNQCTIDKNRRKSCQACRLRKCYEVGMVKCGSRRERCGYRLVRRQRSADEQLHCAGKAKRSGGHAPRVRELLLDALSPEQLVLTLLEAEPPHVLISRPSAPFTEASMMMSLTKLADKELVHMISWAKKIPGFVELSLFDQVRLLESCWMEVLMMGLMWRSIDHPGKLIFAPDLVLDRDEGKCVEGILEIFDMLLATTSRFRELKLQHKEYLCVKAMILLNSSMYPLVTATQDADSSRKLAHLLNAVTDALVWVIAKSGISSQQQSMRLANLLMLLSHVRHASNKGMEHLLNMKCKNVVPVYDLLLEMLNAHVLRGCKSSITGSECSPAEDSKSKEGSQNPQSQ
Cytochrome P450 2C19, sequence (P33261 whole entry): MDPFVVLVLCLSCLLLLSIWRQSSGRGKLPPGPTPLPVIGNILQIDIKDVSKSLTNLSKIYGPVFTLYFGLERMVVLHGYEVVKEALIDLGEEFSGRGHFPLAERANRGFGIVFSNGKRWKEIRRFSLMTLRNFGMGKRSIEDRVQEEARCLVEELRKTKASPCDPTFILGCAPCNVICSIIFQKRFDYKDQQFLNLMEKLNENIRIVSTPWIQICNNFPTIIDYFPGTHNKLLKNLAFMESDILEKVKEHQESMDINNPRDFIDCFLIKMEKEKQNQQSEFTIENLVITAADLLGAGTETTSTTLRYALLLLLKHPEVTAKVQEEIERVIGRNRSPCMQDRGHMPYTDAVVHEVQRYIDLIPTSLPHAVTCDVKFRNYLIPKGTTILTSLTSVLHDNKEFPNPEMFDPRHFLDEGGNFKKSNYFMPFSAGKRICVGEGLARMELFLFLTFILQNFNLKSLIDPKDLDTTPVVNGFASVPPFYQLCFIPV

CCCC1O[C@@H]2C[C@H]3[C@@H]4CCC5=CC(=O)C=C[C@]5(C)[C@H]4[C@@H](O)C[C@]3(C)[C@]2(C(=O)CO)O1 (stereo not given in full) [BUDESONIDE]
Not Active: IC50 [1] | IC50 [2] | Ki [2] | IC50 [3] | IC50 [4] | IC50 [5] | Ki [5] | IC50 [6] | IC50 [7] | IC50 [8] | Ki [8] | IC50 [9] | Ki [9]

CN(Cc1ccc(C(C)(C)C)cc1)Cc1cccc2ccccc12 [BUTENAFINE]
Not Active: IC50 [1] | IC50 [2] | Ki [2] | IC50 [3] | IC50 [4] | IC50 [5] | Ki [5] | IC50 [6] | IC50 [7] | IC50 [8] | Ki [8] | IC50 [9] | Ki [9]

Cc1cc(C2CCCCC2)n(O)c(=O)c1 [CICLOPIROX]
Not Active: IC50 [1] | IC50 [2] | Ki [2] | IC50 [3] | IC50 [4] | IC50 [5] | Ki [5] | IC50 [6] | IC50 [7] | IC50 [8] | Ki [8] | IC50 [9] | Ki [9]

CC1=C2C(=CO[C@H](C)[C@H]2C)C(O)=C(C(=O)O)C1=O [CITRININ]
Not Active: IC50 [1] | IC50 [2] | Ki [2] | IC50 [3] | IC50 [4] | IC50 [5] | Ki [5] | IC50 [6] | IC50 [7] | IC50 [8] | Ki [8] | IC50 [9] | Ki [9]

CC(C)(C)NCC(O)c1cc(Cl)c(N)c(Cl)c1 (stereo not given) [CLENBUTEROL]
Not Active: IC50 [1] | IC50 [2] | Ki [2] | IC50 [3] | IC50 [4] | IC50 [5] | Ki [5] | IC50 [6] | IC50 [7] | IC50 [8] | Ki [8] | IC50 [9] | Ki [9]

Cc1cc(C(C#N)c2ccc(Cl)cc2)c(Cl)cc1NC(=O)c1cc(I)cc(I)c1O (stereo not given) [CLOSANTEL]
Not Active: IC50 [1] | IC50 [2] | Ki [2] | IC50 [3] | IC50 [4] | IC50 [5] | Ki [5] | IC50 [6] | IC50 [7] | IC50 [8] | Ki [8] | IC50 [9] | Ki [9]

Cc1onc(-c2ccccc2Cl)c1C(=O)N[C@@H]1C(=O)N2[C@@H]1SC(C)(C)[C@@H]2C(=O)O [CLOXACILLIN]
Not Active: IC50 [1] | IC50 [2] | Ki [2] | IC50 [3] | IC50 [4] | IC50 [5] | Ki [5] | IC50 [6] | IC50 [7] | IC50 [8] | Ki [8] | IC50 [9] | Ki [9]

CC1CC(OC(=O)C(O)c2ccccc2)CC(C)(C)C1 (stereo not given) [CYCLANDELATE]
Not Active: IC50 [1] | IC50 [2] | Ki [2] | IC50 [3] | IC50 [4] | IC50 [5] | Ki [5] | IC50 [6] | IC50 [7] | IC50 [8] | Ki [8] | IC50 [9] | Ki [9]

Cc1c2oc3c(C)ccc(C(=O)N[C@@H]4C(=O)N[C@H](C(C)C)C(=O)N5CCC[C@H]5C(=O)N(C)CC(=O)N(C)[C@@H](C(C)C)C(=O)O[C@@H]4C)c3nc-2c(C(=O)N[C@@H]2C(=O)N[C@H](C(C)C)C(=O)N3CCC[C@H]3C(=O)N(C)CC(=O)N(C)[C@@H](C(C)C)C(=O)O[C@@H]2C)c(N)c1=O [DACTINOMYCIN] (I: T[dV]P[Sar][NMeV] / II: T[dV]P[Sar][NMeV]; ester I:1-I:C, II:1-II:C; linker I:N-II:N via Actinocin(1to9))
Not Active: IC50 [1] | IC50 [2] | Ki [2] | IC50 [3] | IC50 [4] | IC50 [5] | Ki [5] | IC50 [6] | IC50 [7] | IC50 [8] | Ki [8] | IC50 [9] | Ki [9]

Cc1c(O)c(=O)ccn1C [DEFERIPRONE]
Not Active: IC50 [1] | IC50 [2] | Ki [2] | IC50 [3] | IC50 [4] | IC50 [5] | Ki [5] | IC50 [6] | IC50 [7] | IC50 [8] | Ki [8] | IC50 [9] | Ki [9]
